The numbers were not newly measured in US20230338402A1, “TREATMENT REGIMEN FOR CANCER USING IMMUNOMODULATION” (BioXcel Therapeutics, Inc., priority 2020, published 2023), which cites them from elsewhere.

Structures can show the parent of a compound that is named as a salt.

The target in data set [1] is T1, CYP1A2 (Homo sapiens, UniProt P05177).
T1 sequence (P05177 1-516): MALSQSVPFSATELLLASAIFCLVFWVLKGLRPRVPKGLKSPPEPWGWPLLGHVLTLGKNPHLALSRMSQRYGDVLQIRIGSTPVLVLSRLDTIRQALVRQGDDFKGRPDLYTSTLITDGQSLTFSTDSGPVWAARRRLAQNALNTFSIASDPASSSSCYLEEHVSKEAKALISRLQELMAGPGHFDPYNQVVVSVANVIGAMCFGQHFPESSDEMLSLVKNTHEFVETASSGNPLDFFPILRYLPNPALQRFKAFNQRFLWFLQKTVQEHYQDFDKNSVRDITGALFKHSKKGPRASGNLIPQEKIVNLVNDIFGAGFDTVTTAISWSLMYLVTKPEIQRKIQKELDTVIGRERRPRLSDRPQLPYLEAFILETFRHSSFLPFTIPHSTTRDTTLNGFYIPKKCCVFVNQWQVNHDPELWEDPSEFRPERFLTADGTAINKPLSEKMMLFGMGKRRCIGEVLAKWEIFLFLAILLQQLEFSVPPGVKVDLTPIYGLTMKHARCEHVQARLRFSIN
Conditions: human liver CYP isoenzymes, preclinical studies.

Data set [2] has as its target T2, CYP2C8 (Homo sapiens, UniProt P10632).
T2 sequence (P10632 1-490): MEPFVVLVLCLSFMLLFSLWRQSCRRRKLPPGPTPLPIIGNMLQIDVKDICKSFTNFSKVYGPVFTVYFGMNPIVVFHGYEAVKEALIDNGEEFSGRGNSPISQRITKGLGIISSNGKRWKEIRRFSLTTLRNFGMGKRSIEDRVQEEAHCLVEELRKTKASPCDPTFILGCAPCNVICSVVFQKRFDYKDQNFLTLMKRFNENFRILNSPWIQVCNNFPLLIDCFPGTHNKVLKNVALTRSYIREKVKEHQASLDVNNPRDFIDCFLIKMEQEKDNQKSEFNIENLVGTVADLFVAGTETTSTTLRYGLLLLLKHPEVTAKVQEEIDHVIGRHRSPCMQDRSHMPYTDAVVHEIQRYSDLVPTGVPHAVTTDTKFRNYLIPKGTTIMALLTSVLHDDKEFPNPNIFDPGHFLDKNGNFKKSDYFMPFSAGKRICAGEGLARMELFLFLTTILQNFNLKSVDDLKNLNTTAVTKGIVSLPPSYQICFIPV

The target in data set [3] is CYP2C19 (Homo sapiens, UniProt P33261).
Sequence of CYP2C19 (P33261 whole entry): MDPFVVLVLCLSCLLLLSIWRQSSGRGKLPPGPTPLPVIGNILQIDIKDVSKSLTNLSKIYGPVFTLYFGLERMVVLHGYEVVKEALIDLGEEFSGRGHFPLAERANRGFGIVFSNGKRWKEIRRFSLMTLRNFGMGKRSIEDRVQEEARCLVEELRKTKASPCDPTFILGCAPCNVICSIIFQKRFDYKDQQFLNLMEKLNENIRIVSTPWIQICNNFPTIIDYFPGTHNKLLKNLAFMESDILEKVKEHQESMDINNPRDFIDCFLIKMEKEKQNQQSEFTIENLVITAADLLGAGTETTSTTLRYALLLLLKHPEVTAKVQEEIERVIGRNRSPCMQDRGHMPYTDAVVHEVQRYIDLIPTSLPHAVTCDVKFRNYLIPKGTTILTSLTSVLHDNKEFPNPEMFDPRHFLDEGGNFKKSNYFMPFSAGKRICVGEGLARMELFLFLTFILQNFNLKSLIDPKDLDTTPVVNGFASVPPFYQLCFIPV
The target of data set [4] is CYP2C9 (Homo sapiens, UniProt P11712).
Sequence of CYP2C9 (P11712 whole entry): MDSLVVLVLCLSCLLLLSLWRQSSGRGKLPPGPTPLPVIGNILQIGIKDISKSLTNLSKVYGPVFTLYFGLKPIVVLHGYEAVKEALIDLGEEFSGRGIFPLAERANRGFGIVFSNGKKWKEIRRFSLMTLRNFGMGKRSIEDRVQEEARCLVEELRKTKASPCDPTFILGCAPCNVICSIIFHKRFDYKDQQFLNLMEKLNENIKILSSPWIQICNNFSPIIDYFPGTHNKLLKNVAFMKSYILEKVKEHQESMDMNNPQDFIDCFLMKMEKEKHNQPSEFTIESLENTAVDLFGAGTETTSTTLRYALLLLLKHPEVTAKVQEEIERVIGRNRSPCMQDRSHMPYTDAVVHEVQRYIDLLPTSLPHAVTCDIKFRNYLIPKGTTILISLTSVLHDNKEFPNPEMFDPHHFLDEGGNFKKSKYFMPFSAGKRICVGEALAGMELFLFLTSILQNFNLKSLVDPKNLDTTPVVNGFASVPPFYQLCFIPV
In data set [5] the test system is CYP3A4.
Data set [6] concerns the target CYP2D6 (Homo sapiens, UniProt P10635).
Data set [7] deals with CYP3A4 (Homo sapiens, UniProt P08684).
Sequence of CYP3A4 (Homo sapiens, UniProt P08684) (P08684 whole entry): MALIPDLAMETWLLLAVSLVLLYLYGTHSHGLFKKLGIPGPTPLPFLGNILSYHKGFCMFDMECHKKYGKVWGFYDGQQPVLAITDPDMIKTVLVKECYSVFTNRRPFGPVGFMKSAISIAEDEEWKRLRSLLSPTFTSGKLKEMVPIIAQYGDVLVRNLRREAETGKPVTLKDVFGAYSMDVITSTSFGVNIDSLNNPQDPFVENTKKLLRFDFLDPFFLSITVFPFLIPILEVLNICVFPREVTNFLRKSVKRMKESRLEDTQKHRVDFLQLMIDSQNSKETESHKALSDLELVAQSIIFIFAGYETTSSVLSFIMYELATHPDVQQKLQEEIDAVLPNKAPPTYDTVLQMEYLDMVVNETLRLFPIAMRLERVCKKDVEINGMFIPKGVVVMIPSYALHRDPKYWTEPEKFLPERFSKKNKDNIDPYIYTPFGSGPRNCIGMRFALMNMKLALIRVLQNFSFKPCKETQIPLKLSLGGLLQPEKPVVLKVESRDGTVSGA
The subject of data set [8] is CYP1A2.
Data set [9] deals with melanoma. The note with it: melanoma patients.

Sequence of CYP2D6 (P10635 whole entry): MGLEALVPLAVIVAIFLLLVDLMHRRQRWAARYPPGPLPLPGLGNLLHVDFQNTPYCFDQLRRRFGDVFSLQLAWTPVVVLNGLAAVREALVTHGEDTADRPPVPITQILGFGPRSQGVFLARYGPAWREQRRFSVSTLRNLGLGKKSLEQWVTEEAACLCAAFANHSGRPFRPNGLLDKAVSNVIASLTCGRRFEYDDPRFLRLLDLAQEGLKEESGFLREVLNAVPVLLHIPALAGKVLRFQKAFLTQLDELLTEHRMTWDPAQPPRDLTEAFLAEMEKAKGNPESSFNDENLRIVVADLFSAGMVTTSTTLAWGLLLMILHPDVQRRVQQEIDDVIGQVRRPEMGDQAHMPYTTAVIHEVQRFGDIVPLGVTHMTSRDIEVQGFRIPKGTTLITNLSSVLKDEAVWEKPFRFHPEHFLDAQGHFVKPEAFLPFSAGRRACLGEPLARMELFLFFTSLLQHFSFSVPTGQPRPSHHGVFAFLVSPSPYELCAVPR

Regarding `CC(C)[C@H](N)C(=O)N1CCC[C@H]1B(O)O` [Talabostat mesylate, [(2R)-1-[(2S)-2-amino-3-methylbutanoyl]pyrrolidin-2-yl]boronic acid], the “Potential to inhibit CYP1A2” value in data set [1] is on record as “low potential”. Further, the “Potential to inhibit CYP2C8” value in [2] is “low potential”. Besides, the “Potential to inhibit CYP2C19” value in data set [3] was “low potential”. The “Potential to inhibit CYP2C9” value in [4] is “low potential”. Also, the “Induction of CYP3A4” value in [5] is reported as “did not induce”. Further, in data set [6], the “Potential to inhibit CYP2D6” value is “low potential”. Moreover, the “Potential to inhibit CYP3A4” value in data set [7] is recorded as “low potential”. In addition, the “Induction of CYP1A2” value in [8] is reported as “did not induce”.

As to “Ipilimumab: CTLA-4 antagonist, immune checkpoint inhibitor antibody”, the Response rate in data set [9] is recorded as 11%.

In the case of “Nivolumab: PD-1 antagonist, immune checkpoint inhibitor antibody”, the Response rate in data set [9] is listed as 32%.
